This experiment concerns the target T1, rhodopsin (Bos taurus, UniProt P02699).
T1 construct: Gift: Dr. Andreas von Usedom, Institute for Medical Physics and Biophysics, Humboldt University, Berlin
The experiment in a line: Assay for rhodopsin functionality (transducin dissociation on illumination, SPR, BIACORE X). The conditions noted are these: 10 μM 9-cis-retinal, after extended illumination and over night incubation. It is filed as biochemical. As for the experimental part: In order to judge if the rhodopsin has a native and functional conformation after immobilization and supplementation with lipids as described in steps A and B above, its signaling capacity was assayed. When rhodopsin is activated by light, it transmits its signal by activating transducin. Activated transducin dissociates from the membrane under consumption of GTP (Heyse, S., et al., Biochemistry (1998) 37:507-522).
Measurements of transducin dissociation by activated rhodopsin were performed in a BIACORE X instrument into which an optical fiber had been inserted for illumination of the flow cells. The instrument temperature was set to 20° C. All the operations were performed under safe red light. […]
This solution was injected at 5 μl/min over both the rhodopsin and the reference flow cells in the manual mode. Upon injection, transducin bound readily to both the rhodopsin-POPC surface and the POPC reference surface, but when the injection was finished it dissociated very rapidly from the surface into the mobile phase of running buffer. […] The activation of the receptor was recorded as a surface mass decrease caused by dissociation of the activated transducin from the membrane. […]
(In general: In SPR one partner is held on a chip, and binding of the other changes the refractive index at the surface.)

T1 sequence (P02699 whole entry): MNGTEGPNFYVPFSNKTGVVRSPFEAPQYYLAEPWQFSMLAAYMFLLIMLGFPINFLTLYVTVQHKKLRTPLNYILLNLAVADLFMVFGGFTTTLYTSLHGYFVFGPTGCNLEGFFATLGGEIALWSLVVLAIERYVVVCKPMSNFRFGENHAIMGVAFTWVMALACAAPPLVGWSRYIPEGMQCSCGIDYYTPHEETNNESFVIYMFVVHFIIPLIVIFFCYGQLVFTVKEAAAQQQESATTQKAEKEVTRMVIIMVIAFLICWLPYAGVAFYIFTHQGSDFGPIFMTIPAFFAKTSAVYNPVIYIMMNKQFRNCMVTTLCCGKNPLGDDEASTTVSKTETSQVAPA

Take `CC1=C(/C=C/C(C)=C\C=C\C(C)=C\C=O)C(C)(C)CCC1` [9-cis-retinal]: the “signalling capacity of exhausted reconstituted rhodopsin after ligand injection” value is given as “recovery of the signalling capacity”.

These data come from patent US20020182717A1, “Method of preparing supported lipid film membranes and use thereof” (Biacore AB, priority 2001, published 2002).
